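Cultured in 96-well plates, cells were exposed to test compound for 48 hours across five concentrations. GI50 marks 50% less growth.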 Activity calls are given as the source filed them. No stated cut-off is given here; in the data, active = GI50 up to about 1.1 µM and inactive = higher.
Key:
Assay in all cases: NCI anticancer screen, dose series, 48 h
786-0 = test system: 786-0
A498 = test system: A498
A549 = test system: A549
ACHN = test system: ACHN
CAKI-1 = test system: CAKI-1
CCRF-CEM = test system: CCRF-CEM
COLO 205 = test system: COLO 205
DLD-1 = test system: DLD-1
DMS-114 = test system: DMS-114
DMS-273 = test system: DMS-273
EKVX = test system: EKVX
HCC 2998 = test system: HCC 2998
HCT-116 = test system: HCT-116
HL-60 = test system: HL-60
HOP-18 = test system: HOP-18
HOP-62 = test system: HOP-62
HOP-92 = test system: HOP-92
HT-29 = test system: HT-29
IGROV-1 = test system: IGROV-1
K562 = test system: K562
KM-20L2 = test system: KM-20L2
KM12 = test system: KM12
LOX IMVI = test system: LOX IMVI
LXFL 529 = test system: LXFL 529
M14 = test system: M14
M19-MEL = test system: M19-MEL
MOLT-4 = test system: MOLT-4
Malme-3M = test system: Malme-3M
NCI-H226 = test system: NCI-H226
NCI-H23 = test system: NCI-H23
NCI-H522 = test system: NCI-H522
OVCAR-3 = test system: OVCAR-3
OVCAR-4 = test system: OVCAR-4
OVCAR-5 = test system: OVCAR-5
OVCAR-8 = test system: OVCAR-8
RXF 393 = test system: RXF 393
RXF 631 = test system: RXF 631
SF-268 = test system: SF-268
SF-295 = test system: SF-295
SF-539 = test system: SF-539
SK-MEL-28 = test system: SK-MEL-28
SK-MEL-2 = test system: SK-MEL-2
SK-MEL-5 = test system: SK-MEL-5
SK-OV-3 = test system: SK-OV-3
SN12C = test system: SN12C
SNB-19 = test system: SNB-19
SNB-75 = test system: SNB-75
SNB-78 = test system: SNB-78
SR = test system: SR
SW-620 = test system: SW-620
TK-10 = test system: TK-10
U-251 = test system: U-251
UACC-257 = test system: UACC-257
UACC-62 = test system: UACC-62
UO-31 = test system: UO-31
XF498 = test system: XF498
NCI-H460 = test system: NCI-H460
HCT-15 = test system: HCT-15
RPMI-8226 = test system: RPMI-8226

O=C1CN=C(c2ccccc2)c2ccncc2N1
GI50 (786-0): > 100 µM (inactive)
GI50 (A498): > 100 µM (inactive)
GI50 (A549): > 100 µM (inactive)
GI50 (ACHN): > 100 µM (inactive)
GI50 (CAKI-1): > 100 µM (inactive)
GI50 (CCRF-CEM): > 100 µM (inactive)
GI50 (COLO 205): > 100 µM (inactive)
GI50 (DLD-1): > 100 µM (inactive)
GI50 (DMS-114): > 100 µM (inactive)
GI50 (DMS-273): > 100 µM (inactive)
GI50 (EKVX): > 100 µM (inactive)
GI50 (HCC 2998): > 100 µM (inactive)
GI50 (HCT-116): > 100 µM (inactive)
GI50 (HL-60): > 100 µM (inactive)
GI50 (HOP-18): > 100 µM (inactive)
GI50 (HOP-62): > 100 µM (inactive)
GI50 (HOP-92): > 100 µM (inactive)
GI50 (HT-29): > 100 µM (inactive)
GI50 (IGROV-1): > 100 µM (inactive)
GI50 (K562): > 100 µM (inactive)
GI50 (KM-20L2): > 100 µM (inactive)
GI50 (KM12): 16.2 µM (inactive)
GI50 (LOX IMVI): > 100 µM (inactive)
GI50 (LXFL 529): > 100 µM (inactive)
GI50 (M14): > 100 µM (inactive)
GI50 (M19-MEL): > 100 µM (inactive)
GI50 (MOLT-4): > 100 µM (inactive)
GI50 (Malme-3M): > 100 µM (inactive)
GI50 (NCI-H226): > 100 µM (inactive)
GI50 (NCI-H23): > 100 µM (inactive)
GI50 (NCI-H522): > 100 µM (inactive)
GI50 (OVCAR-3): > 100 µM (inactive)
GI50 (OVCAR-4): > 100 µM (inactive)
GI50 (OVCAR-5): > 100 µM (inactive)
GI50 (OVCAR-8): > 100 µM (inactive)
GI50 (RXF 393): > 100 µM (inactive)
GI50 (RXF 631): > 100 µM (inactive)
GI50 (SF-268): > 100 µM (inactive)
GI50 (SF-295): > 100 µM (inactive)
GI50 (SF-539): > 100 µM (inactive)
GI50 (SK-MEL-28): > 100 µM (inactive)
GI50 (SK-MEL-2): > 100 µM (inactive)
GI50 (SK-MEL-5): > 100 µM (inactive)
GI50 (SK-OV-3): > 100 µM (inactive)
GI50 (SN12C): > 100 µM (inactive)
GI50 (SNB-19): > 100 µM (inactive)
GI50 (SNB-75): > 100 µM (inactive)
GI50 (SNB-78): > 100 µM (inactive)
GI50 (SR): > 100 µM (inactive)
GI50 (SW-620): > 100 µM (inactive)
GI50 (TK-10): 33.3 µM (inactive)
GI50 (U-251): > 100 µM (inactive)
GI50 (UACC-257): 26.6 µM (inactive)
GI50 (UACC-62): > 100 µM (inactive)
GI50 (UO-31): > 100 µM (inactive)
GI50 (XF498): > 100 µM (inactive)

O=C1c2c(O)cc(O)cc2OC(c2ccc(O)cc2O)C1O (centres undefined)
GI50 (A549): 79.6 µM (inactive)
GI50 (CAKI-1): 59.3 µM (inactive)
GI50 (DLD-1): 50.9 µM (inactive)
GI50 (DMS-114): 32.5 µM (inactive)
GI50 (EKVX): 60.8 µM (inactive)
GI50 (HOP-18): 31.8 µM (inactive)
GI50 (KM-20L2): 54 µM (inactive)
GI50 (KM12): 60.4 µM (inactive)
GI50 (LXFL 529): 36.1 µM (inactive)
GI50 (M19-MEL): 29.9 µM (inactive)
GI50 (MOLT-4): 28.6 µM (inactive)
GI50 (NCI-H23): 57.5 µM (inactive)
GI50 (NCI-H460): 57.8 µM (inactive)
GI50 (RXF 631): 40.5 µM (inactive)
GI50 (SF-295): 56.4 µM (inactive)
GI50 (SNB-78): 42.1 µM (inactive)
GI50 (SR): 25.7 µM (inactive)
GI50 (TK-10): 57.4 µM (inactive)

CCOC(=O)CN.CCOC(=O)Nc1ccc(S(=O)(=O)OC)cc1.CCOC(=O)Nc1ccc(S(=O)(=O)OC)cc1
GI50 (786-0): > 50 µM (inactive)
GI50 (A498): > 50 µM (inactive)
GI50 (A549): > 50 µM (inactive)
GI50 (ACHN): > 50 µM (inactive)
GI50 (CAKI-1): > 50 µM (inactive)
GI50 (CCRF-CEM): > 50 µM (inactive)
GI50 (COLO 205): > 50 µM (inactive)
GI50 (DLD-1): > 50 µM (inactive)
GI50 (DMS-114): > 50 µM (inactive)
GI50 (DMS-273): > 50 µM (inactive)
GI50 (EKVX): > 50 µM (inactive)
GI50 (HCC 2998): > 50 µM (inactive)
GI50 (HCT-116): > 50 µM (inactive)
GI50 (HCT-15): > 50 µM
GI50 (HL-60): > 50 µM (inactive)
GI50 (HOP-18): > 50 µM (inactive)
GI50 (HOP-62): > 50 µM (inactive)
GI50 (HOP-92): > 50 µM (inactive)
GI50 (HT-29): > 50 µM (inactive)
GI50 (IGROV-1): > 50 µM (inactive)
GI50 (K562): > 50 µM (inactive)
GI50 (KM-20L2): > 50 µM (inactive)
GI50 (KM12): > 50 µM (inactive)
GI50 (LOX IMVI): > 50 µM (inactive)
GI50 (LXFL 529): > 50 µM (inactive)
GI50 (M14): > 50 µM (inactive)
GI50 (M19-MEL): > 50 µM (inactive)
GI50 (MOLT-4): > 50 µM (inactive)
GI50 (Malme-3M): > 50 µM (inactive)
GI50 (NCI-H226): > 50 µM (inactive)
GI50 (NCI-H23): > 50 µM (inactive)
GI50 (NCI-H460): 17.8 µM (inactive)
GI50 (OVCAR-3): > 50 µM (inactive)
GI50 (OVCAR-4): > 50 µM (inactive)
GI50 (OVCAR-5): > 50 µM (inactive)
GI50 (OVCAR-8): > 50 µM (inactive)
GI50 (RPMI-8226): > 50 µM (inactive)
GI50 (RXF 631): > 50 µM (inactive)
GI50 (SF-268): > 50 µM (inactive)
GI50 (SF-295): > 50 µM (inactive)
GI50 (SF-539): > 50 µM (inactive)
GI50 (SK-MEL-28): > 50 µM (inactive)
GI50 (SK-MEL-2): > 50 µM (inactive)
GI50 (SK-MEL-5): > 50 µM (inactive)
GI50 (SK-OV-3): > 50 µM (inactive)
GI50 (SN12C): > 50 µM (inactive)
GI50 (SNB-19): > 50 µM (inactive)
GI50 (SNB-75): > 50 µM (inactive)
GI50 (SNB-78): > 50 µM (inactive)
GI50 (SW-620): 7.83 µM (inactive)
GI50 (TK-10): > 50 µM (inactive)
GI50 (U-251): 9.25 µM (inactive)
GI50 (UACC-257): > 50 µM (inactive)
GI50 (UACC-62): > 50 µM (inactive)
GI50 (UO-31): > 50 µM (inactive)

— ChEMBL document CHEMBL1201862, “PubChem BioAssay data set” (2004)
